A word on the IC50: it is the concentration that gives 50% inhibition. The low end stands for higher potency, the high end for lower potency.

The structures appear in SMILES notation. A value given as a limit tells only on which side of the number the result lay.

Our source for the IC50 values is US10301280B2 (Plexxikon Inc., priority 2012, dated 2019).

The test concerns BaF3-FL KIT D816V or BaF3-FL KIT V560G/D816V cell line. Nature of the test: Cell-based assays of c-Kit mutant kinase activity (cell growth, ATPlite). As to conditions: at least one of the c-kit cell assays of Example 26. Here is the method: The c-Kit mutant D816V inhibitors were assessed using an engineered BaF3-FL KIT D816V or BaF3-FL KIT V560G/D816V cell line. The BaF3-FL KIT D816V cell lines were created by introduction of KIT mutant (D816V) full length constructs that render the cells dependent on the introduced kinase for growth. Inhibitors of c-Kit mutant D816V kinase reduce or eliminate the mediated c-kit mutant D816V kinase activation, resulting in reduced cell proliferation of the BaF3-FL Kit mutant D816V cells. This inhibition is measured by the effect of compound concentration on cell growth to assess IC50 values. BaF3-FL KIT D816V cells were seeded at 1×10^4 cells per well of a 96 well cell culture plate in 50 μl of cell culture medium of RPMI Medium 1X (Invitrogen #11875-093) supplemented with 10% FBS (Invitrogen #10438), 1% Non Essential Amino Acids(Invitrogen #11140), 1% Penicillin Streptomycin (Invitrogen #15140), 1% L-Glutamine (Invitrogen #25030-081). Compounds were dissolved in DMSO at a concentration of 5 mM and were serially diluted 1:3 for a total of eight points and added to the cells to a final maximum concentration of 10 μM in 100 μl cell culture medium (final concentration 0.2% DMSO). Cells were also treated with Dasatinib as a positive control. The cells were incubated at 37° C., 5% CO2 for three days. ATPlite Buffer (Perkin Elmer #6016739) and substrate were equilibrated to room temperature, and enzyme/substrate Recombinant Firefly Luciferase/D-Luciferin was reconstituted. The cell plates were equilibrated to room temperature for 30 minutes, then lysed by addition of 25 uL per well of the ATPlite Reagent. The plate was mixed for 5 minutes on a plate shaker to lyse the cells. The plates were read on a Tecan Safire using Luminescence protocol modified to read 0.1 s per well. The luminescence reading assesses the ATP content, which correlates directly with cell number such that the reading as a function of compound concentration is used to determine the IC50 value.
Plasmids P75635 and P75565 were engineered for mammalian cell expression. In both plasmids, full-length human v-kit Hardy-Zuckerman 4 feline sarcoma viral oncogene homolog gene (NCBI accession NM_000222, KIT, residues M1-V976) was subcloned into the pCI-Neo vector (Promega E1841). Plasmid P75635 contains the mutation of residue Aspartic acid 816 to Valine. Plasmid P75565 contains the double mutation of residues Valine 560 to Glycine and Aspartic acid 816 to Valine. The pCI-neo Mammalian Expression Vector carries the human cytomegalovirus (CMV) immediate-early enhancer/promoter region to promote constitutive expression of KIT and contains the neomycin phosphotransferase gene, a selectable marker.
It is understood that the results of these assays may vary as assay conditions are varied. Inhibition levels determined under the conditions described herein represent a relative activity for the compounds tested under the specific conditions employed. The cell based assays are likely to show variability due to the complexity of the system and the sensitivity thereof to any changes in the assay conditions. […] In some instances, the compounds were not tested in all of the assays, or assay results were not valid.
In general terms: ATP-based viability assays read luminescence as a measure of living cells.
For the compound `CCOc1ncccc1-c1cc2cc(NC(=O)c3n[nH]c(C)c3C)cnc2[nH]1` [P-2239, N-(2-(2-ethoxypyridin-3-yl)-1H-pyrrolo[2,3-b]pyridin-5-yl)-4,5-dimethyl-1H-pyrazole-3-carboxamide], the IC50 was below 10 µM. As for `Cc1[nH]nc(C(=O)Nc2cnc3[nH]c(-c4ccnc(N5CCCC5)c4)cc3c2)c1C` [P-2208, 4,5-dimethyl-N-(2-(2-(pyrrolidin-1-yl)pyridin-4-yl)-1H-pyrrolo[2,3-b]pyridin-5-yl)-1H-pyrazole-3-carboxamide], the concentration for half-maximal inhibition (IC50) was below 10 µM. The same measure for `CC(=O)Nc1ccc(-c2cc3cc(NC(=O)c4[nH]nc(C)c4C)cnc3[nH]2)cn1` [P-2133, N-[2-(6-acetamido-3-pyridyl)-1H-pyrrolo[2,3-b]pyridin-5-yl]-3,4-dimethyl-1H-pyrazole-5-carboxamide]: below 10 µM; for `Cc1[nH]nc(C(=O)Nc2cnc3[nH]c(-c4ccc(C5CC5)nc4)cc3c2)c1C` [P-2255, N-(2-(6-cyclopropylpyridin-3-yl)-1H-pyrrolo[2,3-b]pyridin-5-yl)-4,5-dimethyl-1H-pyrazole-3-carboxamide]: below 10 µM; for `CCOc1cc(-c2cc3cc(NC(=O)c4n[nH]c(C)c4C)cnc3[nH]2)ccn1` [P-2247, N-(2-(2-ethoxypyridin-4-yl)-1H-pyrrolo[2,3-b]pyridin-5-yl)-4,5-dimethyl-1H-pyrazole-3-carboxamide]: below 10 µM. For `O=C(Nc1cnc2[nH]c(-c3ccccc3)cc2c1)c1n[nH]c(C(F)F)c1Cl` [P-2237, 4-chloro-5-(difluoromethyl)-N-(2-phenyl-1H-pyrrolo[2,3-b]pyridin-5-yl)-1H-pyrazole-3-carboxamide], the IC50 was below 10 µM. As to `COCCNC(=O)c1cc(-c2cc3cc(NC(=O)c4n[nH]c(C)c4C)cnc3[nH]2)ccn1` [P-2220, 4-(5-(4,5-dimethyl-1H-pyrazole-3-carboxamido)-1H-pyrrolo[2,3-b]pyridin-2-yl)-N-(2-methoxyethyl)picolinamide], the IC50 was below 10 µM.

Take `Cc1[nH]nc(C(=O)Nc2cnc3[nH]c(-c4ccnc(C(=O)N5CCN(C)CC5)c4)cc3c2)c1C` [P-2217, 4,5-dimethyl-N-(2-(2-(4-methylpiperazine-1-carbonyl)pyridin-4-yl)-1H-pyrrolo[2,3-b]pyridin-5-yl)-1H-pyrazole-3-carboxamide]: the IC50 was below 10 µM. Compound `Cc1[nH]nc(C(=O)Nc2cnc3[nH]c(-c4ccc(F)c(C#N)c4F)cc3c2)c1C` [P-2261, N-(2-(3-cyano-2,4-difluorophenyl)-1H-pyrrolo[2,3-b]pyridin-5-yl)-4,5-dimethyl-1H-pyrazole-3-carboxamide] came in with an IC50 below 10 µM.

`Cc1cc2cc(NC(=O)c3[nH]nc(C)c3C)cnc2[nH]1` [P-2302, 3,4-dimethyl-N-(2-methyl-1H-pyrrolo[2,3-b]pyridin-5-yl)-1H-pyrazole-5-carboxamide] displayed an IC50 below 10 µM. As for `Cc1[nH]nc(C(=O)Nc2cnc3[nH]c(-c4cccc5c4OC(F)(F)O5)cc3c2)c1C` [P-2267, N-(2-(2,2-difluorobenzo[d][1,3]dioxol-4-yl)-1H-pyrrolo[2,3-b]pyridin-5-yl)-4,5-dimethyl-1H-pyrazole-3-carboxamide], the IC50 is below 10 µM. The same measure for `Cc1cnccc1-c1cc2cc(NC(=O)c3n[nH]c(C)c3C)cnc2[nH]1` [P-2251, 4,5-dimethyl-N-(2-(3-methylpyridin-4-yl)-1H-pyrrolo[2,3-b]pyridin-5-yl)-1H-pyrazole-3-carboxamide]: below 10 µM.

The compound `Cc1[nH]nc(C(=O)Nc2cnc3[nH]c(-c4cnn(C5CCN(C(=O)C6CC6)CC5)c4C)cc3c2)c1C` [P-2200, N-(2-(1-(1-(cyclopropanecarbonyl)piperidin-4-yl)-5-methyl-1H-pyrazol-4-yl)-1H-pyrrolo[2,3-b]pyridin-5-yl)-4,5-dimethyl-1H-pyrazole-3-carboxamide] displayed an IC50 below 10 µM. `Cc1[nH]nc(C(=O)Nc2cnc3[nH]c(-c4ccnc(N5CCC(C)CC5)c4)cc3c2)c1C` [P-2210, 4,5-dimethyl-N-(2-(2-(4-methylpiperidin-1-yl)pyridin-4-yl)-1H-pyrrolo[2,3-b]pyridin-5-yl)-1H-pyrazole-3-carboxamide] gave an IC50 below 10 µM. Next, `Cc1n[nH]c(C(=O)Nc2cnc3[nH]c(-c4ccc(C#N)cc4)cc3c2)c1C` [P-2092, N-[2-(4-cyanophenyl)-1H-pyrrolo[2,3-b]pyridin-5-yl]-3,4-dimethyl-1H-pyrazole-5-carboxamide]: below 10 µM. Next, `Cc1[nH]nc(C(=O)Nc2cnc3[nH]cc(-c4cccc(N5CCNCC5)n4)c3c2)c1C` [P-2190, 4,5-dimethyl-N-(3-(6-(piperazin-1-yl)pyridin-2-yl)-1H-pyrrolo[2,3-b]pyridin-5-yl)-1H-pyrazole-3-carboxamide]: below 10 µM; `Cc1[nH]nc(C(=O)Nc2cnc3[nH]c(-c4cccnc4C(F)(F)F)cc3c2)c1C` [P-2241, 4,5-dimethyl-N-(2-(2-(trifluoromethyl)pyridin-3-yl)-1H-pyrrolo[2,3-b]pyridin-5-yl)-1H-pyrazole-3-carboxamide]: below 10 µM. Consider `Cc1[nH]nc(C(=O)Nc2cnc3[nH]c(-c4ccnc(C(=O)N5CCCC5)c4)cc3c2)c1C` [P-2218, 4,5-dimethyl-N-(2-(2-(pyrrolidine-1-carbonyl)pyridin-4-yl)-1H-pyrrolo[2,3-b]pyridin-5-yl)-1H-pyrazole-3-carboxamide], for which the concentration for half-maximal inhibition (IC50) is below 10 µM. The compound `O=C(Nc1cnc2[nH]c(-c3ccccc3)cc2c1)c1n[nH]c(C(F)(F)F)c1Cl` [P-2232, 4-chloro-N-(2-phenyl-1H-pyrrolo[2,3-b]pyridin-5-yl)-5-(trifluoromethyl)-1H-pyrazole-3-carboxamide] displayed an IC50 below 10 µM.

`CCc1n[nH]c(C(=O)Nc2cnc3[nH]c(-c4ccc(F)cc4)cc3c2)c1Cl` [P-2173, 4-chloro-3-ethyl-N-[2-(4-fluorophenyl)-1H-pyrrolo[2,3-b]pyridin-55-yl]-1H-pyrazole-5-carboxamide]: the IC50 was below 10 µM. Compound `CONC(=O)c1cc(-c2cc3cc(NC(=O)c4n[nH]c(C)c4C)cnc3[nH]2)ccn1` [P-2223, 4-(5-(4,5-dimethyl-1H-pyrazole-3-carboxamido)-1H-pyrrolo[2,3-b]pyridin-2-yl)-N-methoxypicolinamide] showed an IC50 below 10 µM. Consider `Cc1n[nH]c(CNc2cnc3[nH]c(-c4ccc(F)cc4)cc3c2)c1Cl` [P-2141, N-[(4-chloro-5-methyl-1H-pyrazol-3-yl)methyl]-2-(4-fluorophenyl)-1H-pyrrolo[2,3-b]pyridin-5-amine], for which the concentration for half-maximal inhibition (IC50) was below 10 µM. Next, `Cc1cc(F)ccc1-c1cc2cc(NC(=O)c3n[nH]c(C)c3C)cnc2[nH]1` [P-2259, N-(2-(4-fluoro-2-methylphenyl)-1H-pyrrolo[2,3-b]pyridin-5-yl)-4,5-dimethyl-1H-pyrazole-3-carboxamide]: below 10 µM; `Cc1[nH]nc(C(=O)Nc2cnc3[nH]c(-c4ccnc(C(=O)NCC(C)C)c4)cc3c2)c1C` [P-2228, 4-(5-(4,5-dimethyl-1H-pyrazole-3-carboxamido)-1H-pyrrolo[2,3-b]pyridin-2-yl)-N-isobutylpicolinamide]: below 10 µM. With `CC(=O)Nc1cccc(-c2cc3cc(NC(=O)c4[nH]nc(C)c4C)cnc3[nH]2)c1` [P-2100, N-[2-(3-acetamidophenyl)-1H-pyrrolo[2,3-b]pyridin-5-yl]-3,4-dimethyl-1H-pyrazole-5-carboxamide], the IC50 is below 10 µM. `Cc1nn(C2CNC2)cc1-c1cc2cc(NC(=O)c3n[nH]c(C)c3C)cnc2[nH]1` [P-2195, N-(2-(1-(azetidin-3-yl)-3-methyl-1H-pyrazol-4-yl)-1H-pyrrolo[2,3-b]pyridin-5-yl)-4,5-dimethyl-1H-pyrazole-3-carboxamide]: the IC50 is below 10 µM.

In the case of `Cc1n[nH]c(C(=O)Nc2cnc3[nH]c(-c4cnn(CC(C)C)c4)cc3c2)c1C` [P-2083, N-[2-(1-isobutylpyrazol-4-yl)-1H-pyrrolo[2,3-b]pyridin-5-yl]-3,4-dimethyl-1H-pyrazole-5-carboxamide], the IC50 is below 10 µM. Take `Cc1c(C(=O)Nc2cnc3[nH]c(-c4ccccc4)cc3c2)n[nH]c1C(F)F` [P-2234, 5-(difluoromethyl)-4-methyl-N-(2-phenyl-1H-pyrrolo[2,3-b]pyridin-5-yl)-1H-pyrazole-3-carboxamide]: the IC50 was below 10 µM.
